Experimental data reported in ChEMBL document CHEMBL4814071, “Synthesis and antibacterial study of cell-penetrating peptide conjugated trifluoroacetyl and thioacetyl lysine modified peptides” (Eur J Med Chem, 2021).
Where a name gives a salt, the structure may show the parent alone. Active and inactive are the calls of the source. No cut-off for these calls is given here. Where a SMILES comes first, the peptide text is derived from it. The star is where a group is joined. Tfa = O=C(C(F)(F)F)*

Legend:
[1] = system: Staphylococcus aureus; test: Synergistic antibacterial activity against Staphylococcus aureus assessed as fractional inhibitory concentration index incubated for 24 hrs in presence of streptomycin; type: functional
[2] = system: Lipid bilayer; test: Binding affinity to bacterial inner membrane mimic POPE/POPG (3:1) LUVs assessed as increase in intensity by one-dimensional 19F NMR based analysis
[3] = system: Lipid bilayer; test: Binding affinity to mammalian membrane mimic DOPC/40% cholesterol assessed as calcein leakage at 20 uM by fluorescence based assay; type: ADME
[4] = system: Pseudomonas aeruginosa; test: Potentiation of polymyxin B-induced antibacterial activity against Pseudomonas aeruginosa assessed as polymyxin B MIC incubated for 24 hrs by microplate reader method; type: functional
[5] = system: Staphylococcus aureus; test: Potentiation of streptomycin-induced antibacterial activity against Staphylococcus aureus assessed as streptomycin MIC incubated for 24 hrs by microplate reader method; type: functional
[6] = system: Escherichia coli; test: Potentiation of polymyxin B-induced antibacterial activity against Escherichia coli assessed as polymyxin B MIC incubated for 24 hrs by microplate reader method; type: functional
[7] = Induction of yeast killing at 50 uM incubated for 72 hrs in presence of Ura3 and absence of FOA by absorbance based analysis; conditions: saccharomyces cerevisiae
[8] = biological target: NAD-dependent histone deacetylase SIR2 (Saccharomyces cerevisiae S288c) (UniProt P06700); test: Inhibition of yeast sirtuin2-mediated Ura3 transcriptional silencing at telomeric locus assessed as yeast killing at 50 uM incubated for 72 hrs in presence of FOA by absorbance based analysis
[9] = system: Escherichia coli; test: Antibacterial activity against Escherichia coli assessed as reduction in microbial growth after 24 hrs in presence of polymyxin B by microplate reader method; type: functional
[10] = system: Staphylococcus aureus; test: Antibacterial activity against Staphylococcus aureus assessed as reduction in microbial growth after 24 hrs in presence of streptomycin by microplate reader method; type: functional
[11] = system: Staphylococcus aureus; test: Antibacterial activity against Staphylococcus aureus assessed as reduction in microbial growth after 24 hrs by microplate reader method; type: functional
[12] = system: Escherichia coli; test: Antibacterial activity against Escherichia coli assessed as reduction in microbial growth after 24 hrs by microplate reader method; type: functional
[13] = system: Pseudomonas aeruginosa; test: Antibacterial activity against Pseudomonas aeruginosa assessed as reduction in microbial growth after 24 hrs by microplate reader method; type: functional
[14] = system: Staphylococcus aureus; test: Antibiofilm activity against Staphylococcus aureus assessed as biofilm eradication incubated for 24 hrs by crystal violet staining assay; type: functional
[15] = system: Escherichia coli; test: Antibiofilm activity against Escherichia coli assessed as biofilm eradication incubated for 24 hrs by crystal violet staining assay; type: functional
[16] = system: Staphylococcus aureus; test: Antibiofilm activity against Staphylococcus aureus assessed as inhibition of biofilm formation incubated for 48 hrs by crystal violet staining assay; type: functional
[17] = system: Escherichia coli; test: Antibiofilm activity against Escherichia coli assessed as as inhibition of biofilm formation incubated for 48 hrs by crystal violet staining assay; type: functional
[18] = system: Cell membrane; test: Disruption of membrane integrity in Escherichia coli at 2 times MIC measured after 20 mins by SEM analysis
[19] = system: Cell membrane; test: Disruption of membrane integrity in Staphylococcus aureus at 2 times MIC measured after 20 mins by SEM analysis
[20] = system: Escherichia coli; test: Synergistic antibacterial activity against Escherichia coli assessed as fractional inhibitory concentration index incubated for 24 hrs in presence of Polymyxin B; type: functional
[21] = system: Pseudomonas aeruginosa; test: Synergistic antibacterial activity against Pseudomonas aeruginosa assessed as fractional inhibitory concentration index incubated for 24 hrs in presence of Polymyxin B; type: functional
[22] = system: Lipid bilayer; test: Binding affinity to bacterial inner membrane mimic DOPE/DOPG (3:1) large unilamellar vesicles assessed as calcein leakage at 20 uM by fluorescence based assay
[23] = Hemolytic activity against mouse RBC at 1000 uM measured after 1 hr by microplate reader analysis; type: cell-based, Erythrocyte; conditions: mouse red blood cells (erythrocytes), read-out: Activity
[24] = system: HeLa; test: Cytotoxicity against human HeLa cells assessed as reduction in cell viability incubated for 48 hrs by MTT assay; type: cell-based
[25] = system: BE(2)-C; test: Cytotoxicity against human BE(2)-C cells assessed as reduction in cell viability incubated for 48 hrs by MTT assay; type: cell-based
[26] = system: Staphylococcus aureus; test: Antibiofilm activity against Staphylococcus aureus assessed as biofilm eradication at 2XMBEC incubated for 12 hrs by SYTO9/PI staining based microscopic analysis; type: functional, organism-based
[27] = system: Escherichia coli; test: Antibiofilm activity against Escherichia coli assessed as biofilm eradication at 2XMBEC incubated for 12 hrs by SYTO9/PI staining based microscopic analysis; type: functional, organism-based
[28] = Inhibition of transcriptional machinery using Puc19-lacCONS plasmid DNA and Escherichia coli RNA polymerase-sigma70 holoenzyme at 40 uM incubated for 35 mins followed by NTP addition for 30 mins by spectrofluorometer analysis; type: functional; conditions: time 65.0 min
[29] = system: Pseudomonas aeruginosa; test: Antibacterial activity against Pseudomonas aeruginosa assessed as reduction in microbial growth after 24 hrs in presence of polymyxin B by microplate reader method; type: functional
[30] = system: Staphylococcus aureus; test: Potentiation of streptomycin-induced antibacterial activity against Staphylococcus aureus assessed as fold change in streptomycin MIC incubated for 24 hrs by microplate reader method; type: functional

Sequence of NAD-dependent histone deacetylase SIR2 (Saccharomyces cerevisiae S288c) (P06700 whole entry): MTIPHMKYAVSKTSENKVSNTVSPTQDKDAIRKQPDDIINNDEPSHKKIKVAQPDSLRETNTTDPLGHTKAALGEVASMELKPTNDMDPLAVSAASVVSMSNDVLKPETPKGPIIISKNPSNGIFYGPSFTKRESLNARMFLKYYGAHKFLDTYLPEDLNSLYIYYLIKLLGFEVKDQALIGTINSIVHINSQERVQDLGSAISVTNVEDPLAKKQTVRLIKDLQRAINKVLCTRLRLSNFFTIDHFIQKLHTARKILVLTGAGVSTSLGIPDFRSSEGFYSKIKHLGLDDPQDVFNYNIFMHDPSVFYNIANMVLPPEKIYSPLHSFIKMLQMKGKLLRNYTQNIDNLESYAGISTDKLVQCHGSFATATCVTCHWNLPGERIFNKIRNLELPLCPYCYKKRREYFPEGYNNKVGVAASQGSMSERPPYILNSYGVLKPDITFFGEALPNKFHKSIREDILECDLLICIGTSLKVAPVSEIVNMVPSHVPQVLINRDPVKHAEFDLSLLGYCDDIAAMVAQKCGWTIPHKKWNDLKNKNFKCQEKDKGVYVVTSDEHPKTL

Activity [2]: Active
Activity [3]: < 20%
MIC [4]: 0.1 µM
MIC [5]: 0.38 µM
MIC [6]: 0.05 µM
MIC [9]: 15.6 µM
MIC [10]: 0.31 µM
MIC [11]: 1.5 µM
MIC [12]: 125 µM
MIC [13]: > 250 µM
Activity [18]: inactive
Activity [19]: inactive
Activity [22]: 70%
MIC [29]: 25 µM
SMILES: CC(=O)N[C@@H](CCCCN)C(=O)NCC(=O)N[C@@H](CC(C)C)C(=O)N[C@@H](CCCNC(=N)N)C(=O)N[C@@H](CCCCNC(=O)C(F)(F)F)C(=O)N[C@@H](Cc1ccccc1)C(=O)NCC(=O)N[C@@H](C)C(=O)N[C@@H](CCCCN)C(=O)N[C@@H](CCCNC(=N)N)C(=O)N[C@@H](Cc1cnc[nH]1)C(=O)N[C@@H](CCCNC(=N)N)C(=O)N[C@@H](CS)C(N)=O (Ac-KGLRK(Tfa)FGAKRHRC-NH2)
fractional inhibitory concentration index (FICI) [1]: 0.19
Activity [7]: Toxic
inhibition [8]: Active
MBEC [14]: 12.5 µM
MBEC [15]: inactive
MBIC [16]: 6.3 µM
MBIC [17]: inactive
fractional inhibitory concentration index (FICI) [20]: 0.36
fractional inhibitory concentration index (FICI) [21]: 0.36
hemolysis at 1 h, 1000 µM [23]: < 5%
IC50 [24]: 94.6 µM
IC50 [25]: 78 µM
Activity [26]: Active
Activity [27]: Active
inhibition [28]: Active
fold change (FC) [30]: 6
